The values below come from patent US7153869B2, “Substituted amino acids as erythropoietin mimetics” (priority 1998, dated 2006).

Structures are written as SMILES. Where two headings read alike, the source gives them in different places.

This assay deals with T1, EBP-Ig (N-terminal 225 amino acids of the human EPO receptor joined to an Ig heavy chain) (Homo sapiens, UniProt P19235).
T1 construct: Ig heavy chain (fusion partner); made in house; host or cells: NSO cells (secreted into conditioned media)
T1 sequence (P19235 25-250 limits assumed): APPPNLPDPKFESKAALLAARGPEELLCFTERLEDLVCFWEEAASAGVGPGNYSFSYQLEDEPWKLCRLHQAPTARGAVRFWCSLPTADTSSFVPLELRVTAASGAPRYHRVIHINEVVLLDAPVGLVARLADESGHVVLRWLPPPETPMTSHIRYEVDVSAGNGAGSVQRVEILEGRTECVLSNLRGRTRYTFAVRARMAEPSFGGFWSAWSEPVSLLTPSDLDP
As to the kind of experiment: Inhibition of [125I]EPO binding to immobilized EBP-Ig (EPO binding protein-Ig), scintillation Flash plate competition assay. The following applies: for IC30 μM (Inhibition of EPO binding to EBP-Ig): 0–500 μM test compound; for % inh @ 50 μM (Inhibition of EPO binding to EBP-Ig): 50 μM test compound, average % inhibition.

[1] abbreviates: read-out: % inh @ 50 μM (Inhibition of EPO binding to EBP-Ig).
[2] abbreviates: read-out: EPO/EBP-Ig % inh @ 50 μM, Table 11, 50 μM.
The mark [3] stands for this setting: read-out: EPO/EBP-Ig % inh @ 50 μM, 50 μM compound, Table 10.
Setting [4] is: read-out: IC50, μM (Inhibition of EPO binding to EBP-Ig), 0.5 nM [125I]EPO, concentration reducing corrected total binding to 50%.

Take `COC(=O)C(CCCCN)N(Cc1ccc(OCc2ccccc2)cc1)Cc1cccc([N+](=O)[O-])c1` (stereo not shown) [compound 114]: the “IC30 μM (Inhibition of EPO binding to EBP-Ig)” value (0.5 nM [125I]EPO) worked out at 10 µM. Besides, the inhibition at 50 µM runs as follows: under setting [1], 37%; (read-out: EPO/EBP-Ig % inh @ 50 μM, Table 7, 50 μM) 37%. `O=C(O)CCC(C(=O)NCCOCCOCCNC(=O)C(CCC(=O)O)N(Cc1ccc(OCc2ccccc2)cc1)Cc1ccc(OCc2ccccc2)cc1)N(Cc1ccc(OCc2ccccc2)cc1)Cc1ccc(OCc2ccccc2)cc1` (stereo not shown) [cpd 246, [N,N-bis(4-Benzyloxybenzyl)GluNHCH2CH2OCH2]2]: the “IC30 μM (Inhibition of EPO binding to EBP-Ig)” value (0.5 nM [125I]EPO) is 10 µM. Moreover, the inhibition at 50 µM amounted to 79% under setting [1] and 79% under setting [2]. For `N=C(N)NCCCC(C(=O)O)N(CC=Cc1cccs1)CC=Cc1cccs1` (stereo not shown) [compound 49], the “EPO/EBP-Ig % inh @ 50 μM” value (Table 3, 50 μM) turned out to be 1%. Consider `COC(=O)C(CCCCNC(=O)OCc1ccccc1)N(C/C=C/c1ccc(OC)cc1)C/C=C/c1ccc(OC)cc1` (stereo not shown) [compound 174], for which the “EPO/EBP-Ig % inh @ 50 μM” value (50 μM compound, Table 9) came out at 23%. Turning to `COC(=O)[C@H](COC(C)(C)C)N(C/C=C/c1cccc(Oc2ccc(Cl)c(Cl)c2)c1)C/C=C/c1cccc(Oc2ccc(Cl)c(Cl)c2)c1` [compound 293], for the setting “50 μM compound, Table 16A”, the “EPO/EBP-Ig % inh @ 50 μM” value was 14%. With `CCCCNC(=O)C(CCCCNC(=O)c1ccc(OC)cc1)N(C/C=C/c1ccccc1)C/C=C/c1ccccc1` (stereo not shown) [compound 207], the “EPO/EBP-Ig % inh @ 50 μM” value (50 μM compound, Table 10) is 20%.

By IC50 is commonly meant the concentration that gives 50% inhibition. In turn, `Cc1ccc(S(=O)(=O)Nc2cccc(CN(Cc3cccc(Oc4ccccc4)c3)C(CCC(=O)O)C(=O)NCCOCCOCCNC(=O)C(CCC(=O)O)N(Cc3cccc(NS(=O)(=O)c4ccc(C)cc4)c3)Cc3cccc(Oc4ccccc4)c3)c2)cc1` (stereo not shown) [compound 250] had an IC50 of 20 µM. For the setting “0.5 nM [125I]EPO”, the “IC30 μM (Inhibition of EPO binding to EBP-Ig)” value was found to be 7 µM. Also, the inhibition at 50 µM under setting [1] worked out at 78%. Also, the inhibition at 50 µM under setting [2] was determined as 78%. As to `CC(C)(C)OC(=O)CC[C@H](NC/C=C/c1cccc(Oc2cccc(C(F)(F)F)c2)c1)C(=O)OC(C)(C)C` [compound 338], the “EPO/EBP-Ig % inh @ 50 μM” value (50 μM compound, Table 19A) was 23%. Consider `CC(C)(C)OC(=O)CC[C@H](NC/C=C/c1cccc(Oc2ccc(C(C)(C)C)cc2)c1)C(=O)OC(C)(C)C` [compound 339], for which, for the setting “50 μM compound, Table 19A”, the “EPO/EBP-Ig % inh @ 50 μM” value is 10%.

For the compound `O=C(O)CCC(C(=O)O)N(C/C=C/c1ccc(NC(=O)C(F)(F)C(F)(F)F)cc1)Cc1ccc(OCc2ccccc2)cc1` (stereo not shown) [compound 84], for the setting “Table 5, 50 μM”, the “EPO/EBP-Ig % inh @ 50 μM” value is on record as 14%.

`O=C(O)C(F)(F)F.O=C(O)CC[C@H](NC/C=C/c1ccc(-c2ccccc2)cc1)C(=O)O` [compound 329]: where the note is “50 μM compound, Table 19A”, the “EPO/EBP-Ig % inh @ 50 μM” value was found to be 13%.

`COc1ccc(CCNC(=O)C(CCCCNC(=O)Nc2ccc(Cl)c(Cl)c2)N(C/C=C/c2ccccc2)C/C=C/c2ccccc2)cc1` (stereo not shown) [compound 230]: the “EPO/EBP-Ig % inh @ 50 μM” value (50 μM compound, Table 10) stood at 42%. In addition, the “% inh @ 50 μM (Inhibition of EPO binding to EBP-Ig)” value (0.5 nM [125I]EPO) is listed as 42%. With `COc1cccc(CCNC(=O)C(CCCCN)N(C/C=C/c2ccc([N+](=O)[O-])cc2)C/C=C/c2ccc([N+](=O)[O-])cc2)c1` (stereo not shown) [compound 233], the “EPO/EBP-Ig % inh @ 50 μM” value (50 μM compound, Table 10) turned out to be 18%. Turning to `CC(=O)O.COC(=O)c1cccc(C=CCNC(CCCCNC(=O)OCc2ccccc2)C(=O)OC)c1` (stereo not shown) [compound 321], where the note is “0.5 nM [125I]EPO”, the “IC30 μM (Inhibition of EPO binding to EBP-Ig)” value turned out to be 45 µM and the “% inh @ 50 μM (Inhibition of EPO binding to EBP-Ig)” value was determined as 42%. The “EPO/EBP-Ig % inh @ 50 μM” value (50 μM compound, Table 18A) is on record as 42%. For `CC(C)(C)OC[C@@H](C(=O)O)N(C/C=C/c1ccc(-c2ccccc2)cc1)C/C=C/c1ccc(-c2ccccc2)cc1` [compound 301], under “50 μM compound, Table 16A”, the “EPO/EBP-Ig % inh @ 50 μM” value was 25%. Turning to `NCCCCC(C(=O)NCCc1ccccc1)N(CC=Cc1ccccc1)CC=Cc1ccccc1` (stereo not shown) [compound 227], the “IC30 μM (Inhibition of EPO binding to EBP-Ig)” value (0.5 nM [125I]EPO) is 20 µM. Further, the inhibition at 50 µM under setting [1] is 48% and the inhibition at 50 µM under setting [3] came out at 48%. Further, under setting [4], the IC50 stood at 50 µM. Regarding `COC(=O)[C@H](CO)NC/C=C/c1ccc(-c2ccccc2)cc1.O=C(O)C(F)(F)F` [compound 342], the “EPO/EBP-Ig % inh @ 50 μM” value (50 μM compound, Table 20A) amounted to 0%. Take `CC(C)(C)OC(=O)CCC(C(=O)OC(C)(C)C)N(C/C=C/c1cccc(Oc2cccc(C(F)(F)F)c2)c1)C/C=C/c1cccc(Oc2cccc(C(F)(F)F)c2)c1` (stereo not shown) [compound 103]: the “EPO/EBP-Ig % inh @ 50 μM” value (Table 6, 50 μM) was 17%. Regarding `COc1cccc(CCNC(=O)C(CCCCNC(=O)CCC(=O)O)N(CC=Cc2ccccc2)CC=Cc2ccccc2)c1` (stereo not shown) [compound 237], the “IC30 μM (Inhibition of EPO binding to EBP-Ig)” value (0.5 nM [125I]EPO) came out at 30 µM. Further, the inhibition at 50 µM by setting is: under setting [1], 55%; under setting [3], 55%. Further, the IC50 under setting [4] turned out to be 70 µM.

In the case of `O=C(O)CC(C(=O)O)N(C/C=C/c1cccc(Oc2ccccc2)c1)C/C=C/c1cccc(Oc2ccccc2)c1` (stereo not shown) [compound 108], the “IC30 μM (Inhibition of EPO binding to EBP-Ig)” value (0.5 nM [125I]EPO) is 23 µM. The inhibition at 50 µM under setting [1] stood at 81% and the inhibition at 50 µM (read-out: EPO/EBP-Ig % inh @ 50 μM, Table 6, 50 μM) came out at 81%. With `COC(=O)[C@H](COC(C)(C)C)NC/C=C/c1cccc(Oc2cccc(C(F)(F)F)c2)c1` [compound 355], where the note is “50 μM compound, Table 20A”, the “EPO/EBP-Ig % inh @ 50 μM” value is 22%. As to `O=C(O)C(F)(F)F.O=C(O)[C@H](CO)NC/C=C/c1cccc(Oc2cccc(C(F)(F)F)c2)c1` [compound 350], where the note is “50 μM compound, Table 20A”, the “EPO/EBP-Ig % inh @ 50 μM” value is given as 23%. `O=C(O)CC(C(=O)NCCCOCCCCOCCCNC(=O)C(CC(=O)O)N(Cc1ccc(OCc2ccccc2)cc1)Cc1ccc(OCc2ccccc2)cc1)N(Cc1ccc(OCc2ccccc2)cc1)Cc1ccc(OCc2ccccc2)cc1` (stereo not shown) [compound 243] showed an IC50 of 18 µM. Further, the “IC30 μM (Inhibition of EPO binding to EBP-Ig)” value (0.5 nM [125I]EPO) turned out to be 2 µM. Also, the inhibition at 50 µM under setting [1] was found to be 75%. Further, under setting [2], the inhibition at 50 µM is 75%. As to `Cc1ccc(Oc2cccc(/C=C/C(=O)N(Cc3cccc(Oc4ccccc4)c3)C(CCCCN)C(=O)O)c2)cc1` (stereo not shown) [compound 287], the “EPO/EBP-Ig % inh @ 50 μM” value (50 μM compound, Table 15) turned out to be 36%. Also, the “% inh @ 50 μM (Inhibition of EPO binding to EBP-Ig)” value (0.5 nM [125I]EPO) is reported as 36%. Take `COC(=O)C(CCCCNC(=O)OCc1ccccc1)N(C/C=C/c1cccc(Oc2ccccc2)c1)C/C=C/c1cccc(Oc2ccccc2)c1` (stereo not shown) [compound 176]: the “EPO/EBP-Ig % inh @ 50 μM” value (50 μM compound, Table 9) is on record as −4%.

For the compound `CC(=O)O.COC(=O)CC(NCC=Cc1cccc(C(=O)OC)c1)C(=O)OC` (stereo not shown) [compound 366], where the note is “0.5 nM [125I]EPO”, the “IC30 μM (Inhibition of EPO binding to EBP-Ig)” value amounted to 65 µM and the “% inh @ 50 μM (Inhibition of EPO binding to EBP-Ig)” value amounted to 38%. Further, the “EPO/EBP-Ig % inh @ 50 μM” value (50 μM compound) is given as 38%. With `COC(=O)C(CCC(=O)OC(C)(C)C)N(CC=Cc1cccc(Oc2ccccc2)c1)CC=Cc1cccc(Oc2ccccc2)c1` (stereo not shown) [cpd 96, N,N-bis(3-Phenoxycinnamyl)Glu(O-t-Bu)-OMe], under “Table 6, 50 μM”, the “EPO/EBP-Ig % inh @ 50 μM” value is −5%. As for `COC(=O)[C@H](COC(C)(C)C)N(C/C=C/c1cccc(Oc2cccc(C(F)(F)F)c2)c1)C/C=C/c1cccc(Oc2cccc(C(F)(F)F)c2)c1` [compound 292], the “EPO/EBP-Ig % inh @ 50 μM” value (50 μM compound, Table 16A) turned out to be 11%. As for `CCOC(=O)c1ccc(NC(=O)NCCCCC(C(=O)NCCc2ccc(OC)cc2)N(C/C=C/c2ccccc2)C/C=C/c2ccccc2)cc1` (stereo not shown) [compound 231], the “EPO/EBP-Ig % inh @ 50 μM” value (50 μM compound, Table 10) is on record as 36%. The “% inh @ 50 μM (Inhibition of EPO binding to EBP-Ig)” value (0.5 nM [125I]EPO) is on record as 36%. In the case of `NCCCCC(C(=O)NCCOCCOCCNC(=O)C(CCCCN)N(Cc1ccc(OCc2ccccc2)cc1)Cc1ccc(OCc2ccccc2)cc1)N(Cc1ccc(OCc2ccccc2)cc1)Cc1ccc(OCc2ccccc2)cc1` (stereo not shown) [compound 261], where the note is “0.5 nM [125I]EPO”, the “IC30 μM (Inhibition of EPO binding to EBP-Ig)” value is 1.5 µM and the “% inh @ 50 μM (Inhibition of EPO binding to EBP-Ig)” value is 51%. Under “50 μM compound, Table 13”, the “EPO/EBP-Ig % inh @ 50 μM” value is given as 51%. Also, the IC50 under setting [4] was determined as 2 µM.
